The text below walks through data of patent US7778782B1, “Peroxisome proliferation activated receptor alpha (PPARα) signatures” (priority 2002, dated 2010).

The experiment relates to PPARα response signature. Description: Signature Projection Score (SPS) of liver gene expression against the PPARα response signature. The class given is in vivo, male Sprague-Dawley rats. How it is done: Compound dosing was based on the acute dose LD50s recorded in published reference or literature sources. Duplicate rats were dosed at each of 3 doses: at LD50, one-half and one-fourth of LD50. The MTD (maximum tolerated dose) was then selected as the dose at which the animals […] 5-10% body weight during the 5-day range finding study. […] In addition, the clinical observations must show no or mild clinical signs during the whole of the range-finding study. At the next highest dose, signs and symptoms of adverse effects and exceeding those of the MTD should be seen to occur. Should these criteria not be met, the range-finding study is repeated using a modified dose range.
After determination of the MTD and FED for a compound, each compound was dissolved in a vehicle for administration on day 1 of the study (additional daily doses were stored as frozen aliquots from this initial formulation). Each compound was administered to three individual male Sprague-Dawley rats for each of the two doses (MTD and FED) for one of four different times (0.25 day, 1 day, 3 days, and 5 or 7 days), yielding a total of up to 24 animals per compound study. Vehicle choice was based on solubility of the compound, effect of food on adsorption, and the vehicles used in the literature reports examined during the FED selection investigations, described above. Generally, the route and vehicle in which the FED was defined are used. When there was a choice of routes and vehicles, oral routes were chosen over injection routes. Many compounds, especially oncolytics, are only administerable intravenously. In such cases, the compound was administered as an intravenous formulation into the tail vein. Orally administered compounds were given dissolved in either water, 1% carboxymethycellulose (CMC) or corn oil. Intravenously and intraperitoneally administered compounds were given in 0.9% saline. Subcutaneously administered compounds were given in corn oil. Animal body weights were determined at 1 day and, where appropriate, at 4 days, before necropsy, and clinical observations were made on a daily basis. Control animals were dosed with vehicle only. Three male animals were used for each dose and time combination used for the compound treatment.
Tissue harvest and handling: After the allocated treatment time, the tissues from the animals were harvested. […] All the tissues collected were divided to provide samples for histopathological analyses, and the remainder of each tissue was then snap-frozen. […] The parameters were measured using a Hitachi-911 clinical chemistry analysis instrument according to the manufacturer's instructions. The following blood constituents were measured: Blood Urea Nitrogen (BUN), Creatinine (CRE), Glucose (GLU), Alanine Transaminase (ALT), Aspartate Aminotransferase (AST), Alkaline Phosphatase (ALP), Total Bilirubin (TBI), Sodium (SOD), Potassium (POT), Chloride (CHL), Phosphorus (PHO), Total Protein (TPR), Albumin (ALB), Cholesterol (CHO), Creatine Phosphokinase (CPK), Lactate Dehydrogenase (LDH), Carbon Dioxide (CO2), Uric Acid (UA), and Lipase. […] The parameters were measured using a Baker 9000 blood cell analysis instrument according to the manufactures instructions. The following blood constituents were measured: Leukocyte count (WBC), Differential Leukocyte counts, Erythrocyte count (RBC), Hemoglobin concentration (HGB), Hematocrit (HCT), Mean Corpuscular Volume (MCV), Mean Corpuscular Hemoglobin (MCH), Mean Corpuscular Hemoglobin Concentration (MCC), Thrombocyte Count (PLC). Histopathology: Histopathological analyses of hematoxylin and eosin-stained tissue sections were performed and peer-reviewed by board-certified (Diplomate, American College of Veterinary Pathologists) veterinary pathologists.

Setting [1] is: rat liver expression data in DrugMatrix database compared with PPARα response signature, normalised so highest training treatment = 100, *= p < 0.01, **= p < 0.001.
Setting [2] is: rat liver gene expression, in words.

SMILES strings stand for the structures. Marks after values point to notes of the source that are not given here.

In the case of `CC1=C(CC(=O)O)c2cc(F)ccc2/C1=C\c1ccc([S+](C)[O-])cc1` (centres unmarked), under setting [1], the “SPS (Sequence Projection Score)” value is on record as 4.

For `C[C@]12CCC(=O)C=C1CC[C@@H]1[C@@H]2CC[C@@]2(C)[C@H]1CC[C@]2(C)O` [17-METHYLTESTOSTERONE], the “SPS (Sequence Projection Score)” value under setting [1] amounted to 5.

In the case of `CC(C)c1c(C(=O)Nc2ccccc2)c(-c2ccccc2)c(-c2ccc(F)cc2)n1CC[C@@H](O)C[C@@H](O)CC(=O)O` [ATORVASTATIN], the “SPS (Sequence Projection Score)” value under setting [1] was 22*. In addition, under setting [2], the “similarity to the PPARα response signature” value (“similarity” for short) is recorded as “significantly similar to the signature”.

Regarding `Cn1cnc([N+](=O)[O-])c1Sc1ncnc2nc[nH]c12` [AZATHIOPRINE], the “SPS (Sequence Projection Score)” value under setting [1] is 7.

As to `C[C@]12CC[C@@H]3c4ccc(O)cc4CC[C@H]3[C@@H]1CC[C@@H]2O` [BETA-ESTRADIOL], the “SPS (Sequence Projection Score)” value under setting [1] was 11.

For the compound `CC(C)(Oc1ccc(CCNC(=O)c2ccc(Cl)cc2)cc1)C(=O)O` [BEZAFIBRATE, 2-(4-(2-((4-chlorobenzoyl)amino)ethyl)phenoxy)-2-methylpropanoic acid], the “SPS (Signature Projection Score)” value under setting [1] is 102**.

`CCCCC(CC)COC(=O)c1ccccc1C(=O)OCC(CC)CCCC` (centres unmarked) [BIS-2-ETHYLHEXYL PHTHALATE]: the “SPS (Sequence Projection Score)” value under setting [1] is reported as 68**. In addition, the “similarity” value under setting [2] is listed as “significantly similar to the signature”.

Take `Oc1c(Cl)cc(Cl)cc1Sc1cc(Cl)cc(Cl)c1O` [BITHIONOL]: under setting [1], the “SPS (Sequence Projection Score)” value was found to be 20.

In the case of `COCc1c(C(C)C)nc(C(C)C)c(/C=C/[C@@H](O)C[C@@H](O)CC(=O)O)c1-c1ccc(F)cc1` [CERIVASTATIN], under setting [1], the “SPS (Sequence Projection Score)” value came to 15.

As for `O=C(O)CCCc1ccc(N(CCCl)CCCl)cc1` [CHLORAMBUCIL], the “SPS (Signature Projection Score)” value under setting [1] was found to be 8.

As for `N.N.[Cl][Pt][Cl]` [CISPLATIN], the “SPS (Sequence Projection Score)” value under setting [1] came to 9.

As for `CCOC(=O)C(C)(C)Oc1ccc(Cl)cc1` [CLOFIBRATE, 2-(p-chlorophenoxy)-2-methylpropionic acid ethyl ester], under setting [1], the “SPS (Sequence Projection Score)” value is given as 99**.

Take `Clc1ccccc1C(c1ccccc1)(c1ccccc1)n1ccnc1` [CLOTRIMAZOLE]: the “SPS (Sequence Projection Score)” value under setting [1] is 4.

Take `CC(=O)O[C@]1(C(C)=O)CC[C@H]2[C@@H]3C=C(Cl)C4=CC(=O)[C@@H]5C[C@@H]5[C@]4(C)[C@H]3CC[C@@]21C` [CYPROTERONE ACETATE]: the “SPS (Sequence Projection Score)” value under setting [1] was found to be 5.

With `C[C@@H]1C[C@H]2[C@@H]3CCC4=CC(=O)C=C[C@]4(C)[C@@]3(F)[C@@H](O)C[C@]2(C)[C@@]1(O)C(=O)CO` [DEXAMETHASONE], the “SPS (Sequence Projection Score)” value under setting [1] is recorded as 9.

Turning to `C#C[C@]1(O)CC[C@H]2[C@@H]3CCc4cc(O)ccc4[C@H]3CC[C@@]21C` [ETHINYLESTRADIOL], under setting [1], the “SPS (Sequence Projection Score)” value is listed as 19.

For `OC(Cn1cncn1)(Cn1cncn1)c1ccc(F)cc1F` [FLUCONAZOLE], the “SPS (Sequence Projection Score)” value under setting [1] amounted to 4.

Consider `CC(C)n1c(/C=C/C(O)CC(O)CC(=O)O)c(-c2ccc(F)cc2)c2ccccc21` (centres unmarked) [FLUVASTATIN], for which the “SPS (Signature Projection Score)” value (rat, in vivo) is 35*.

In the case of `Cc1ccc(C)c(OCCCC(C)(C)C(=O)O)c1` [GEMFIBROZIL, 5-(2,5-dimethylphenoxy)-2,2-dimethylpentanoic acid], the “SPS (Sequence Projection Score)” value under setting [1] is 65*.

In the case of `O=P1(NCCCl)OCCCN1CCCl` (centres unmarked) [IFOSFAMIDE], the “SPS (Sequence Projection Score)” value under setting [1] is 9.

As for `CC(=O)N1CCN(c2ccc(OCC3COC(Cn4ccnc4)(c4ccc(Cl)cc4Cl)O3)cc2)CC1` (centres unmarked) [KETOCONAZOLE], under setting [1], the “SPS (Sequence Projection Score)” value is on record as 6.

For the compound `Cc1oncc1C(=O)Nc1ccc(C(F)(F)F)cc1` [LEFLUNOMIDE], the “SPS (Sequence Projection Score)” value under setting [1] is on record as 5.

For `CC[C@H](C)C(=O)O[C@H]1C[C@@H](C)C=C2C=C[C@H](C)[C@H](CC[C@@H]3C[C@@H](O)CC(=O)O3)[C@H]21` [LOVASTATIN], for the setting “rat, in vivo”, the “SPS (Signature Projection Score)” value is reported as 45* and the “similarity” value was “significantly similar to the signature”.

Regarding `CC#C[C@]1(O)CC[C@H]2[C@@H]3CCC4=CC(=O)CCC4=C3[C@@H](c3ccc(N(C)C)cc3)C[C@@]21C` [MIFEPRISTONE], under setting [1], the “SPS (Sequence Projection Score)” value turned out to be 7.

On to `CN(C)C=O` [N,N-DIMETHYLFORMAMIDE], for which the “SPS (Sequence Projection Score)” value under setting [1] came out at 5.

Turning to `C#C[C@]1(OC(C)=O)CC[C@H]2[C@@H]3CCC4=CC(=O)CC[C@@H]4[C@H]3CC[C@@]21C` [NORETHINDRONE ACETATE], the “SPS (Sequence Projection Score)” value under setting [1] was 5.

In the case of `c1ccc2c(c1)Nc1ccccc1S2` [PHENOTHIAZINE], under setting [1], the “SPS (Sequence Projection Score)” value is 23*.

As for `CC(=O)[C@H]1CC[C@H]2[C@@H]3CCC4=CC(=O)CC[C@]4(C)[C@H]3CC[C@]12C` [PROGESTERONE], the “SPS (Sequence Projection Score)” value under setting [1] is given as 5.

With `O=C(c1ccc(OCCN2CCCCC2)cc1)c1c(-c2ccc(O)cc2)sc2cc(O)ccc12` [RALOXIFENE], the “SPS (Sequence Projection Score)” value under setting [1] is reported as 44*.
